Eight molecules from patent US20230293535A1, “ERBB/BTK INHIBITORS” (Dizal (Jiangsu) Pharmaceutical Co., Ltd., priority 2018, published 2023) can be followed below.

Structures can show the parent of a compound that is named as a salt. Where two headings read alike, the source gives them in different places. A value given as a limit tells only on which side of the number the result lay.

Common to all, as to format: cell-based
In assay [1] the test system is TMD-8 cells. Nature of the assay: BTK (wt) cell proliferation, TMD-8 (CellTiter-Glo, 72 h).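 Also: viable cells quantified by ATP-based luminescence, proliferation expressed as percent of DMSO control after subtracting a time-zero baseline plate read at dosing.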 The conditions noted are these: Homo sapiens, TMD8, 72 h, TMD-8 cells, 72 h, CellTiter-Glo; read-out: BTK WT TMD-8 GI50.
For assay [2], the system named is Her2 exon 20 insertion YVMA transduced NIH-3T3 cell line. Description: Cell proliferation, Her2 YVMAins NIH-3T3 (CellTiter-Glo, 72 h).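 Also: viable cells quantified by ATP luminescence, growth over a day-zero baseline plate expressed as percent of DMSO control growth, compound dilution series in 10% FBS medium.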 The conditions noted are these: Mus musculus, NIH3T3, 72 h, Her2 YVMAins cells, 72 h proliferation; read-out: Her2 Exon 20 YVMA insertion GI50. Background: In ATP-based viability assays light output follows the ATP content of the culture.

The target in assay [3] is T1, human Her2 exon 20 insertion mutation YVMA (Homo sapiens, UniProt P04626, INS775YVMA).
T1 construct: expressed in transfected cells; host or cells: NIH-3T3, lentiviral transduction, puromycin selection
T1 sequence (P04626 with tags, fused parts or gaps INS775YVMA): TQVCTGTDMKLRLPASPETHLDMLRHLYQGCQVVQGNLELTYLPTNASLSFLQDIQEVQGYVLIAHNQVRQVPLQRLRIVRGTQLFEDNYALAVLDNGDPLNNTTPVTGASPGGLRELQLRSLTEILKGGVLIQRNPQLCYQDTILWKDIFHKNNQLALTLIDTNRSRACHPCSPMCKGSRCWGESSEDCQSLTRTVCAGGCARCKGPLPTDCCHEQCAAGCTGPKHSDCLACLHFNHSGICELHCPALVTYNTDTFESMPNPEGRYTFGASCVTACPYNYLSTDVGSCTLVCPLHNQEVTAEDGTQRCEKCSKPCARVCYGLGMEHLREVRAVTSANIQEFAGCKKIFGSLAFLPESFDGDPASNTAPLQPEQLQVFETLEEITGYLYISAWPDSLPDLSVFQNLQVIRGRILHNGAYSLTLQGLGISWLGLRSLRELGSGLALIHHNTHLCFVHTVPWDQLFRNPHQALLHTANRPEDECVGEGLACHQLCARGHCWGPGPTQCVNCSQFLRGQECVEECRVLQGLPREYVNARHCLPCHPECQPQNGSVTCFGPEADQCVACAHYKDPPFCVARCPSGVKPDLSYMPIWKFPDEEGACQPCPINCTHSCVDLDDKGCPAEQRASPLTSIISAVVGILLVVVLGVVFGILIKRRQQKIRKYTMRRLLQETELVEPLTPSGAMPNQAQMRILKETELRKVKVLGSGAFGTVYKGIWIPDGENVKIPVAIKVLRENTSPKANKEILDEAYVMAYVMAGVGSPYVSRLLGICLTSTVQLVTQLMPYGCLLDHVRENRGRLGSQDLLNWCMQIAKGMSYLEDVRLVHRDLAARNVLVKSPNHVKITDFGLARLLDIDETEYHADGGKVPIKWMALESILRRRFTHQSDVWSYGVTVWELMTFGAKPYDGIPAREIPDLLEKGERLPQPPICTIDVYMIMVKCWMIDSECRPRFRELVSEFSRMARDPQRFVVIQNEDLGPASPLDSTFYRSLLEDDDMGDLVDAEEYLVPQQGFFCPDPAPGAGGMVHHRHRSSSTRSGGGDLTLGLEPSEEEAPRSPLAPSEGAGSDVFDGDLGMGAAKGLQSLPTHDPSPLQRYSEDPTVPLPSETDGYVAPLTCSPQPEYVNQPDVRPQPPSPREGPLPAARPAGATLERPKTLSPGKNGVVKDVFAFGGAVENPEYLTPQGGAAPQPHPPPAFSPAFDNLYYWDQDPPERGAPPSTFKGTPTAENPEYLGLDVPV
Nature of the assay: Her2 Exon 20 YVMA insertion cellular phosphorylation inhibition (MSD p-Her2 Y1248/total Her2).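 Also: lentivirally transduced NIH-3T3 cells in 1% FBS medium, electrochemiluminescent MSD read-out, graded compound concentrations at 37 °C.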 The conditions noted are these: Her2 YVMAins cells, 4 h compound.

Assay [4] relates to OCI-LY-10 cells. Description: BTK (wt) cell proliferation, OCI-LY-10 (CellTiter-Glo, 72 h).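 Also: viable cells quantified via cellular ATP luminescence, proliferation given as percent of DMSO control after subtracting a duplicate plate read at time of dosing.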 The conditions noted are these: Homo sapiens, OCI-Ly10, 72 h, OCI-LY-10 cells, 72 h, CellTiter-Glo; read-out: BTK WT OCI-LY-10 GI50.
Description: (§1) OCI-LY-10 at 3,750 cells/well, TMD-8 and Ri-1 at 2,000 cells/well, and DB at 1,250 cells/well, respectively, were sorted into 384-well plates in RPMI1640 medium with 10% FBS. After overnight incubation, all cells were incubated with compound at a series of concentrations. Meanwhile, a duplicated plate of each cell line was prepared for measuring G0 value. The dosed plates were further incubated for 72 hours and the number of viable cells was measured by CellTiter-Glo® Luminescent Cell Viability Assay (Promega), a luminescent method for determining the number of viable cells through measurement of cellular ATP concentration using Envision plate reader (PerkinElmer). The percentage of proliferation was calculated as: % Proliferation = 100 × (G3 value of sample well - G0 value)/(G3 value of DMSO control - G0 value).
Assay [5] relates to Ba/F3 EGFR NPH ins cells. Description: Cell proliferation, Ba/F3 EGFR NPH ins (CellTiter-Glo, 72 h).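 Also: IL3-independent cells carrying constitutively phosphorylated EGFR, compound dilution series, viable cells quantified by ATP luminescence, growth relative to DMSO wells after subtracting pre-dosing (day 0) baseline.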 The conditions noted are these: Ba/F3 EGFR, 72 h.
Assay [6] addresses T2, human EGFR exon 20 H773_V774insNPH (Homo sapiens, UniProt P00533, INS773NPH).
T2 construct: host or cells: Ba/F3
Nature of the assay: EGFR Exon20 NPH insertion cellular phosphorylation inhibition (MSD pEGFR Y1068/total EGFR).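 Also: IL3-independent Ba/F3 cells with constitutively phosphorylated EGFR, compound exposure at 37 °C under 5% CO2, electrochemiluminescent MSD measurement of the p-EGFR to total EGFR ratio.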 The conditions noted are these: Ba/F3 EGFR NPH ins cells, 4 h compound, p-EGFR(Y1068)/total EGFR.

The target of assay [7] is T3, EGFR L858R&T790M (Homo sapiens, UniProt P00533, L858R/T790M).
T3 construct: host or cells: NCI-H1975
T3 sequence (P00533 25-1210 T790M/L858R): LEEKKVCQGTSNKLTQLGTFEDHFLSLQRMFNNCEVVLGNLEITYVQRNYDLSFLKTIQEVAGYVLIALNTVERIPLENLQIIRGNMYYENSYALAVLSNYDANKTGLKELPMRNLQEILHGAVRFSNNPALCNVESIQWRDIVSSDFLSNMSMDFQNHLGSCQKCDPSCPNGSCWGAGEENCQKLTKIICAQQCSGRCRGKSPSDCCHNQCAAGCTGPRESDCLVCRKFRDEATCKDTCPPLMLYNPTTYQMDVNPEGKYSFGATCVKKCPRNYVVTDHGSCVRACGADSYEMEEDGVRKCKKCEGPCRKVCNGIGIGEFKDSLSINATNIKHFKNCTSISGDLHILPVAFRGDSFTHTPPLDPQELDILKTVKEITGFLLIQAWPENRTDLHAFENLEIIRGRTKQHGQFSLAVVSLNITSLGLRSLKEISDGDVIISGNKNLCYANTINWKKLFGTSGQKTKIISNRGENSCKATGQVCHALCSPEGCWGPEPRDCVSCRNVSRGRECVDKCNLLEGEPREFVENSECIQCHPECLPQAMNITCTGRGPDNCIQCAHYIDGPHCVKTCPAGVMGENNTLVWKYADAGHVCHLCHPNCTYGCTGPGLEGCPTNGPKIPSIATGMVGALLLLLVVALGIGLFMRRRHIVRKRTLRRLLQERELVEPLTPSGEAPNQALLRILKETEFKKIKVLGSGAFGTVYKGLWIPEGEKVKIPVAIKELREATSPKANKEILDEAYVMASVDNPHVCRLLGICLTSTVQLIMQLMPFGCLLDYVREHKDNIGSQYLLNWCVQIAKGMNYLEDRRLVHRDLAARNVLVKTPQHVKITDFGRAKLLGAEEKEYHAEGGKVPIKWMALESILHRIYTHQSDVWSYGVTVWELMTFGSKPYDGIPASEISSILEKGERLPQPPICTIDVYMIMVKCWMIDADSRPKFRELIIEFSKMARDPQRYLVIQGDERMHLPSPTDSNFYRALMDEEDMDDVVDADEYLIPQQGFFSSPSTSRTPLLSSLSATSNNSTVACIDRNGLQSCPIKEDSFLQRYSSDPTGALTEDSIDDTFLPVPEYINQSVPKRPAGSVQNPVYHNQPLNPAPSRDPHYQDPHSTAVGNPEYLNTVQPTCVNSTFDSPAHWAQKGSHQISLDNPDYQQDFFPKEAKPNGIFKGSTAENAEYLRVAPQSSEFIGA
Nature of the assay: EGFR L858R and T790M cellular phosphorylation inhibition in NCI-H1975 (MSD).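 Also: phosphorylated and total EGFR detected by electrochemiluminescence, cells exposed to compound in medium containing 1% FBS at 37 °C.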 The conditions noted are these: NCI-H1975 cells, 4 h compound, p-EGFR(Y1068)/total EGFR; read-out: EGFR L858R and T790M mutation IC50.
Description: (§2) One day before the test, WT or mutant cells were seeded in 96 well plates at appropriate concentrations with corresponding growth media supplemented with 1% FBS, and incubated overnight. The next day, tested compounds at a series of concentrations were added into each individual well of the plates, and the plates were incubated for 4 h at 37° C. with 5% CO2.
(§3) The EGFR (Y1068) phosphorylation level (activity) of cells in each well were then measured with MSD kit named “MULTI-SPOT®96 4-Spot HB Prototype EGFR Triplex [sequence]: pEGFR(Tyr1068),pEGFR(Tyr1173), Total EGFR” according to the manufacturer’s instruction (MESO SCALE DISCOVERY, Cat# N45ZB-1). The assay is an electrochemiluminescent method for determining both phosphorylated and total EGFR of cells with an MSD SECTOR® Imager and the ratio of p-EGFR/total EGFR can be generated by the machine. The Her2 (Y1248) phosphorylation level (activity) of cells in each well were measured with MSD Kit named “Phospho-ErbB2 (Tyr1248) Assay Whole Cell Lysate Kit” according to the manufacturer’s instruction (MESO SCALE DISCOVERY, Cat# K151CLD-3). The assay is an electrochemiluminescent method (MESO SCALE DISCOVERY) for determining both phosphorylated and total Her2 of cells with an MSD SECTOR® Imager and then the ratio of p-Her2/total Her2 can be generated by the machine.

For assay [8], the target named is T4, human EGFR exon 20 V769_D770insASV (Homo sapiens, UniProt P00533, INS769ASV).
T4 construct: expressed in transfected cells; host or cells: Ba/F3 (DSMZ ACC-300), lentiviral transduction, puromycin selection, IL3 depletion
Description: EGFR Exon20 ASV insertion cellular phosphorylation inhibition (MSD pEGFR Y1068/total EGFR).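 Also: electrochemiluminescent readout on an MSD SECTOR Imager, IL3-independent transduced cells in medium with 1% FBS, compound concentration series at 37 °C and 5% CO2.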 The conditions noted are these: Ba/F3 EGFR ASV ins cells, 4 h compound, p-EGFR(Y1068)/total EGFR.

For assay [9], the system named is NCI-H1975 EGFR L858R/T790M cells. Nature of the assay: Cell proliferation, NCI-H1975 EGFR L858R/T790M (CellTiter-Glo, 72 h).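 Also: viable cells quantified by luciferase-based ATP luminescence, proliferation expressed relative to DMSO-treated wells (100%) after subtracting a parallel plate read at the time of dosing.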 The conditions noted are these: Homo sapiens, NCI-H1975, 72 h.
The target of assay [10] is T5, WT EGFR (Homo sapiens, UniProt P00533).
T5 construct: host or cells: A-431
T5 sequence (P00533 25-1210): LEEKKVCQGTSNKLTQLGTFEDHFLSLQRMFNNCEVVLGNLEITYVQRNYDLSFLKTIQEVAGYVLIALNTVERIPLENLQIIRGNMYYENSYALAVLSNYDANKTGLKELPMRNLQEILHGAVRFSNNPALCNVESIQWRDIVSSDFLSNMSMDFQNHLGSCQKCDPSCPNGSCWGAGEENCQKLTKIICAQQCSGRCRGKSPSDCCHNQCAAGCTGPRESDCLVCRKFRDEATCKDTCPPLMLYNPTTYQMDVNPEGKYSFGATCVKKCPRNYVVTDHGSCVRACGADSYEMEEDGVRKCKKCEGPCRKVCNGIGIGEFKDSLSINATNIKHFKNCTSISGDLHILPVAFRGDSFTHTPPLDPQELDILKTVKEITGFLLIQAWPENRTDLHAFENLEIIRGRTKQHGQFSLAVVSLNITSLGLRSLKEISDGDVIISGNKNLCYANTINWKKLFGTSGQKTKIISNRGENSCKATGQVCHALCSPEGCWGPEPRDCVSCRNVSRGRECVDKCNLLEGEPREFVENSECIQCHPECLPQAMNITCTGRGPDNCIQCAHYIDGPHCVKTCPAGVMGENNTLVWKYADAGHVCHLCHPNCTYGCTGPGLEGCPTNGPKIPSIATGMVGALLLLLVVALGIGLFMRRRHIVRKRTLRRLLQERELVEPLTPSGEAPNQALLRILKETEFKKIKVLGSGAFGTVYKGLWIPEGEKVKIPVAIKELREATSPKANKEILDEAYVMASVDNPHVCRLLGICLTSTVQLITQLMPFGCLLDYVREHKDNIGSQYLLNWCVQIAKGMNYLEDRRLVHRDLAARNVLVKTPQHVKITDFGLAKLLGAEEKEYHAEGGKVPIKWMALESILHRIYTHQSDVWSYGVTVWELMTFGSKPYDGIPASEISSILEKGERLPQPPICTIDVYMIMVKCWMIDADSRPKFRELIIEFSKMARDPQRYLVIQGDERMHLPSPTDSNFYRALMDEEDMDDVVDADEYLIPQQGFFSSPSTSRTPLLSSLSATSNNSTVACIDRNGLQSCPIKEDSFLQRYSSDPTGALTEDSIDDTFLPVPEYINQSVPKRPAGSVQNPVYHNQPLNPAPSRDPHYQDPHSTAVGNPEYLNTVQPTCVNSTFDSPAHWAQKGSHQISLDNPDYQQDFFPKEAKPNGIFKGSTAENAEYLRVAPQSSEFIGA
Description: WT EGFR cellular phosphorylation inhibition in A-431 (hEGF stimulated, MSD).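 Also: electrochemiluminescence read-out of EGFR Tyr1068 phosphorylation expressed as ratio to total EGFR, cells kept in medium with 1% FBS, compounds tested as a concentration series.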 The conditions noted are these: A431 cells, 4 h compound, then 100 ng/ml hEGF 10 min.
Description: as §2, §3

Assay [11] concerns WT EGFR cell line A-431. Description: Cell proliferation, WT EGFR A431 (CellTiter-Glo, 72 h).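 Also: proliferation from a luminescent ATP viability signal, expressed as 100 × (treated minus time-zero plate) over (DMSO control minus time-zero plate), cells grown with 10% FBS.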 The conditions noted are these: Homo sapiens, A-431, 72 h.
Assay [12] relates to Ba/F3 EGFR ASV ins cells. Nature of the assay: Cell proliferation, Ba/F3 EGFR ASV ins (CellTiter-Glo, 72 h).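 Also: IL3-independent Ba/F3 cells transduced with EGFR V769_D770insASV, cellular ATP luminescence after compound exposure, growth relative to DMSO control with the day-0 baseline reading subtracted.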 The conditions noted are these: Ba/F3 EGFR, 72 h.
Assay [13] concerns Ri-1 cells. Description: BTK (wt) cell proliferation, Ri-1 (CellTiter-Glo, 72 h).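 Also: viable cells quantified as cellular ATP luminescence, proliferation normalized to a time-zero plate and the DMSO control, compounds tested across a dilution series.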 The conditions noted are these: Ri-1, 72 h, Ri-1 cells, 72 h, CellTiter-Glo; read-out: BTK WT Ri-1 GI50.
Description: as §1
Assay [14] deals with DB cells. Description: BTK (wt) cell proliferation, DB (CellTiter-Glo, 72 h).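 Also: DB cells in 384-well plates given a dilution series of compound, viable cells read by ATP luminescence, growth expressed versus DMSO control after subtracting a time-zero plate reading.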 The conditions noted are these: Homo sapiens, DB, DB cells, CellTiter-Glo, read-out: Non-BCR activated DB GI50.
Where [15] appears, read: Ba/F3 EGFR NPH ins, 72 h proliferation, read-out: EGFR Exon20 NPH insertion GI50.
[16] abbreviates: NCI-H1975, 72 h proliferation, read-out: EGFR L858R and T790M mutation GI50.
Setting [17] is: A431, 72 h proliferation, read-out: EGFR WT A431 GI50.
[18] abbreviates: Ba/F3 EGFR ASV ins, 72 h proliferation, read-out: EGFR Exon20 ASV insertion GI50.

T2 sequence (P00533 with tags, fused parts or gaps INS773NPH): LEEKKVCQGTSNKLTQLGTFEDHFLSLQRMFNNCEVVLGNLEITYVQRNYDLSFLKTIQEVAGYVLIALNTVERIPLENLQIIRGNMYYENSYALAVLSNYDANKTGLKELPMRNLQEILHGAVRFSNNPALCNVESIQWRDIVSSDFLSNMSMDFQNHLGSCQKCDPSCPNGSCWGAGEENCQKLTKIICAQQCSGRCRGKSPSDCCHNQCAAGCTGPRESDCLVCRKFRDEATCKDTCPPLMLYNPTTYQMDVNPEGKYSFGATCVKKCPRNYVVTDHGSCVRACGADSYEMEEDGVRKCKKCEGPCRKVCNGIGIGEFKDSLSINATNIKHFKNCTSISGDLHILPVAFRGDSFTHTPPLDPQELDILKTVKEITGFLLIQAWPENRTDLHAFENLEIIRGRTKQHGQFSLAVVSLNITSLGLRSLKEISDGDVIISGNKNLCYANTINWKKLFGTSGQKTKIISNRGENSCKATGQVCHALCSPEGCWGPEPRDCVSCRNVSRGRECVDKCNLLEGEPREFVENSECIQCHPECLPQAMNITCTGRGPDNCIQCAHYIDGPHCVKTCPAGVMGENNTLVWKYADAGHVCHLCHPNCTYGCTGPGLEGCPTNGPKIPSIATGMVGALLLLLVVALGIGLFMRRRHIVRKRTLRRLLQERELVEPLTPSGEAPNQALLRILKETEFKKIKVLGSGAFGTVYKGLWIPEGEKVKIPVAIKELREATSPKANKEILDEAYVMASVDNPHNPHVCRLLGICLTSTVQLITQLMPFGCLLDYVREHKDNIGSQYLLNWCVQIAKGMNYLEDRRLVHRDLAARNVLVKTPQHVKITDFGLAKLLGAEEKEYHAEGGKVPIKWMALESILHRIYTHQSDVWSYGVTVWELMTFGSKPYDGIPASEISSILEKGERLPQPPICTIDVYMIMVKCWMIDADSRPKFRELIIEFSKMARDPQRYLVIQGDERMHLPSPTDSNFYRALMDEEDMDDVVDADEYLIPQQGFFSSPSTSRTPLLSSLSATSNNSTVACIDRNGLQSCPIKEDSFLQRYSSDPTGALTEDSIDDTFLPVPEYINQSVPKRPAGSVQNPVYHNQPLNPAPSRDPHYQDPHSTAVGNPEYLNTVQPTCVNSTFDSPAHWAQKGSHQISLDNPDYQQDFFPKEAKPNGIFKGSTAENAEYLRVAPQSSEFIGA

On to `C=CC(=O)Nc1cc(Nc2ncnc(Nc3cc(F)c(Cl)cc3C(C)(C)O)n2)c(OC)cc1N1CC[C@@H]2CN(C)C[C@@H]21` [Compound 41, N-(5-(4-(4-chloro-5-fluoro-2-(2-hydroxypropan-2-yl)phenylamino)-1,3,5-triazin-2-ylamino)-4-methoxy-2-((3aR,6aR)-5-methylhexahydropyrrolo[3,4-b]pyrrol-1 (2H)-yl)phenyl)acrylamide], for which the GI50 in [1] is 4.57 nM; in assay [2], 52.1 nM; in assay [4], 1.57 nM; in [5] (setting [15]), 23.2 nM; in assay [9] (setting [16]) it was 1.6 nM; in [11] (setting [17]) it was 13.8 nM. For the same molecule, the GI50 was 21.8 nM in assay [12] (setting [18]), 4.92 nM in assay [13] and over 3000 nM in assay [14]. In addition, the IC50 in [3] worked out at 9 nM; in [6], 12.6 nM; in [7], 0.8 nM; in [8], 6.7 nM; in assay [10] it was 13.1 nM.

`C=CC(=O)Nc1cc(Nc2ncnc(Nc3cc(F)c(Cl)c(F)c3C(C)(C)O)n2)c(OC)cc1N(C)CCN(C)C` [Compound 16, N-(5-(4-(4-chloro-3,5-difluoro-2-(2-hydroxypropan-2-yl)phenylamino)-1,3,5-triazin-2-ylamino)-2-((2-(dimethylamino)ethyl)(methyl)amino)-4-methoxyphenyl)acrylamide]: the GI50 was 118 nM in [1]; 73.4 nM in assay [2]; 250 nM in assay [4]; 81.3 nM in [5] (setting [15]); 33.4 nM in assay [9] (setting [16]); 52.6 nM in assay [11] (setting [17]). Besides, the GI50 was 114 nM in assay [12] (setting [18]), 334 nM in assay [13] and over 3000 nM in [14]. In addition, the IC50 in assay [3] was determined as 16.5 nM; in [6], 36 nM; in assay [7] it was 0.9 nM; in assay [8], 35.1 nM; in [10] it was 47.6 nM.

Turning to `C=CC(=O)Nc1cc(Nc2ncnc(Nc3cc(F)c(F)cc3C(C)(O)CC)n2)c(OC)cc1N1CC[C@@H]1CN(C)C` (stereo partly drawn) [Compound 55, N-(5-(4-(4,5-difluoro-2-(2-hydroxybutan-2-yl)phenylamino)-1,3,5-triazin-2-ylamino)-2-((R)-2-((dimethylamino)methyl)azetidin-1-yl)-4-methoxyphenyl)acrylamide], the GI50 in [1] worked out at 11.5 nM; in assay [2], 88.9 nM; in assay [4], 6.68 nM; in [5] (setting [15]) it was 62.6 nM; in assay [9] (setting [16]) it was 3.8 nM; in assay [11] (setting [17]) it was 14.6 nM. Also, the GI50 in [12] (setting [18]) is 44.1 nM; in assay [13] it was 12 nM; in assay [14] it was over 3000 nM. Moreover, the IC50 came out at 8.4 nM in assay [3]; 20.1 nM in [6]; 0.8 nM in assay [7]; 9.8 nM in assay [8]; 30.9 nM in [10].

Turning to `C=CC(=O)Nc1cc(Nc2ncnc(Nc3cc(F)c(F)cc3C(C)(C)O)n2)c(OC)cc1N(C)C[C@H]1CCCN1C` [Compound 20, (R)-N-(5-(4-(4,5-difluoro-2-(2-hydroxypropan-2-yl)phenylamino)-1,3,5-triazin-2-ylamino)-4-methoxy-2-(methyl((1-methylpyrrolidin-2-yl)methyl)amino)phenyl)acrylamide], the concentration for 50% growth inhibition (GI50) turned out to be 103 nM in assay [1]; 68.1 nM in assay [2]; 99.8 nM in [4]; 51.5 nM in assay [5] (setting [15]); 7.7 nM in assay [9] (setting [16]); 16.5 nM in assay [11] (setting [17]). For the same molecule, the GI50 in [12] (setting [18]) is 30.8 nM; in assay [13], 56.2 nM; in [14], over 3000 nM. Also, the IC50 in assay [3] came out at 11.3 nM; in [6], 25.3 nM; in assay [7], 0.5 nM; in [8], 9.4 nM; in [10] it was 27.2 nM.

On to `C=CC(=O)Nc1cc(Nc2ncnc(Nc3cc4ccn(C)c4cc3C(C)(C)O)n2)c(OC)cc1N(C)CCN(C)C` [Compound 32, N-(2-((2-(dimethylamino)ethyl)(methyl)amino)-5-(4-(6-(2-hydroxypropan-2-yl)-1-methyl-1H-indol-5-ylamino)-1,3,5-triazin-2-ylamino)-4-methoxyphenyl)acrylamide], for which the GI50 in assay [1] was 0.26 nM; in assay [2], 35.2 nM; in [4], 0.29 nM; in [5] (setting [15]), 19.1 nM; in assay [9] (setting [16]), 1.8 nM; in [11] (setting [17]), 6 nM. In addition, the GI50 in [12] (setting [18]) is 19.3 nM; in assay [13], 0.71 nM; in assay [14], over 3000 nM. Moreover, the IC50 came out at 7.8 nM in [3]; 14.8 nM in [6]; 0.4 nM in assay [7]; 3.7 nM in assay [8]; 11 nM in [10].

For the molecule `C=CC(=O)Nc1cc(Nc2ncnc(Nc3cc(Cl)c(F)cc3C3(O)CCC3)n2)c(OC)cc1N(C)CCN(C)C` [Compound 72, N-(5-(4-(5-chloro-4-fluoro-2-(1-hydroxycyclobutyl)phenylamino)-1,3,5-triazin-2-ylamino)-2-((2-(dimethylamino)ethyl)(methyl)amino)-4-methoxyphenyl)acrylamide formic acid salt], the GI50 in [1] is 7.3 nM; in [2], 38.9 nM; in [4] it was 2.9 nM; in assay [5] (read-out: EGFR Exon20 NPH insertion GI50 (nM)), 46.1 nM; in assay [9] (read-out: EGFR L858R and T790M mutation GI50 (nM)) it was 4.1 nM; in assay [11] (read-out: EGFR WT A431 GI50 (nM)), 10.4 nM. The results for the GI50 in assay [12] (read-out: EGFR Exon20 ASV insertion GI50 (nM)), in [13] and in assay [14] were 42.3 nM, 33.3 nM and over 3000 nM, respectively. Moreover, the IC50 in assay [3] came to 8.9 nM; in assay [6] it was 18.7 nM; in assay [7], 0.6 nM; in assay [8], 8 nM; in assay [10], 26.2 nM.

For the molecule `C=CC(=O)Nc1cc(Nc2ncnc(Nc3ccc(Cl)c(F)c3C(C)(C)O)n2)c(OC)cc1N(C)CCN(C)C` [Compound 14, N-(5-(4-(4-chloro-3-fluoro-2-(2-hydroxypropan-2-yl)phenylamino)-1,3,5-triazin-2-ylamino)-2-((2-(dimethylamino)ethyl)(methyl)amino)-4-methoxyphenyl)acrylamide], the GI50 amounted to 102 nM in assay [1]; 58.7 nM in [2]; 155 nM in assay [4]; 55.4 nM in assay [5] (setting [15]); 18 nM in [9] (setting [16]); 29.1 nM in assay [11] (setting [17]). For the same molecule, the GI50 in [12] (setting [18]) is 84.1 nM; in [13] it was 136 nM; in assay [14], over 3000 nM. Further, the IC50 in [3] worked out at 15.8 nM; in [6], 38.4 nM; in assay [7], 1.1 nM; in [8] it was 26.5 nM; in assay [10], 31.3 nM.

`C=CC(=O)Nc1cc(Nc2ncnc(Nc3cc(Cl)c(F)cc3C(C)(C)O)n2)c(OC)cc1N1CCC[C@@H]1CN(C)C` [Compound 31, (R)-N-(5-(4-(5-chloro-4-fluoro-2-(2-hydroxypropan-2-yl)phenylamino)-1,3,5-triazin-2-ylamino)-2-(2-((dimethylamino)methyl)pyrrolidin-1-yl)-4-methoxyphenyl)acrylamide]: the GI50 in assay [1] worked out at 7.18 nM; in [2] it was 60.1 nM; in assay [4], 30 nM; in [5] (setting [15]) it was 47.9 nM; in assay [9] (setting [16]), 4.2 nM; in assay [11] (setting [17]), 4.2 nM. Further, the GI50 in [12] (setting [18]) was 9.2 nM; in assay [13] it was 59.9 nM; in assay [14], over 3000 nM. Further, the IC50 in [3] worked out at 4.3 nM; in assay [6] it was 13.8 nM; in assay [7], 0.5 nM; in assay [8] it was 5 nM; in assay [10], 5.5 nM.

Broadly, the GI50 is the concentration giving 50% growth inhibition. What is called IC50 is the concentration that inhibits the measured activity by half.
